Here are results for two compounds from PMC4642525, “Conjugates of γ-Carbolines and Phenothiazine as new selective inhibitors of butyrylcholinesterase and blockers of NMDA receptors for Alzheimer Disease” (Scientific Reports, 2015).

Assay [1] concerns the target T1, Acetylcholinesterase (AChE, EC 3.1.1.7, from human erythrocyte) (Homo sapiens, UniProt P22303).
T1 construct: Acetylcholinesterase (AChE, EC 3.1.1.7, from human erythrocyte); purchased Sigma-Aldrich (Germany); host or cells: human erythrocytes
Nature of the assay: biochemical. Particulars: human erythrocyte AChE; pH 7.5, 25 °C, 10 min preincubation; read-out: IC50 (μM) ± SEM AChE. The assay is classed as biochemical. How it is done:
(§1) Acetylcholinesterase (AChE, EC 3.1.1.7, from human erythrocyte), butyrylcholinesterase (BChE, EC 3.1.1.8, from equine serum), carboxylesterase (CaE, EC 3.1.1.1, from porcine liver), acetylthiocholine iodide (ATCh), butylthiocholine iodide (BTCh), 5,5´-dithiobis-(2-nitrobenzoic acid) (DTNB), 4-nitrophenyl acetate (4-NPA), were purchased from Sigma-Aldrich (Germany).
(§2) AChE and BChE activities were measured by the method of Ellman and coworkers as described earlier. The assay solution consisted of 0.1 M K/Na phosphate buffer pH 7.5, 25 °C with the addition of 0.33 mM DTNB, 0.02 unit/mL of AChE or BChE and 1 mM of substrate (ATCh or BTCh, respectively). Assays were carried out with a blank containing all components except ATCh and BTCh in order to account for non-enzymatic reaction.
(§3) The tested compounds were dissolved in DMSO; the incubation mixture contained 2% of the solvent. […] The test compounds were added to the assay solution and preincubated at 25 °C with the enzymes for 10 min followed by the addition of substrate. A parallel control was made for the assay solution with no inhibitor. Measurements were performed in a BioRad Benchmark Plus microplate spectrophotometer (France). Each experiment was performed in triplicate. The results were expressed as the mean ± SEM. The reaction rates in the presence and absence of inhibitor were compared, and the percent of residual enzyme activity due to the presence of test compounds was calculated.

The target in assay [2] is T2, butyrylcholinesterase (BChE, EC 3.1.1.8, from equine serum) (Equus caballus, UniProt P81908).
T2 construct: butyrylcholinesterase (BChE, EC 3.1.1.8, from equine serum); purchased Sigma-Aldrich (Germany); host or cells: equine serum
Nature of the assay: biochemical. Type of assay: biochemical. The note with it: equine serum BChE; pH 7.5, 25 °C, 10 min preincubation; read-out: IC50 (μM) ± SEM BChE. How it is done: as §1, §2, §3

The target in assay [3] is T3, carboxylesterase (CaE, EC 3.1.1.1, from porcine liver) (Sus scrofa, UniProt Q29550).
T3 sequence (Q29550 19-566): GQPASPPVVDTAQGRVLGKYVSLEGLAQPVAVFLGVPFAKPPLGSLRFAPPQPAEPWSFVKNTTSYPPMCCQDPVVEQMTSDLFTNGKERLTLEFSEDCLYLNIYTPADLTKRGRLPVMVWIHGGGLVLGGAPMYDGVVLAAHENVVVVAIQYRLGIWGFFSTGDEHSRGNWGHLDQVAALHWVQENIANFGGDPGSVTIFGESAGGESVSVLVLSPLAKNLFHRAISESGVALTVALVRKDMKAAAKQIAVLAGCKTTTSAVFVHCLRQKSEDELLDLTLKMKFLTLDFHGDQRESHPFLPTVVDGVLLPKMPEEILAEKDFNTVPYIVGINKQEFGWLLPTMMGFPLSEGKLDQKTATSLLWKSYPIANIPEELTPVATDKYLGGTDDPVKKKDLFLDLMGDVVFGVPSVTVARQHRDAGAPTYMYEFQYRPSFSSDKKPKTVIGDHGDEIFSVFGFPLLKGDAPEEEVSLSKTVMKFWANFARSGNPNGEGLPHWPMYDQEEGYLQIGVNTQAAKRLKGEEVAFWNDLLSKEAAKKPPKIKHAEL
Nature of the assay: In vitro CaE inhibition (4-nitrophenyl acetate hydrolysis). The assay is classed as biochemical. The note with it: pH 8.0, 25 °C, 10 min preincubation, read-out: IC50 (μM) ± SEM CaE. How it is done:
as §1
The activity of CaE was determined spectrophotometrically by the release of 4-nitrophenol at 405 nm[51]. The assay solution consisted of 0.1 M K/Na phosphate buffer pH 8.0, 25 °C with the addition of 1 mM 4-nitrophenyl acetate and 0.02 unit/mL of CaE. Assays were carried out with a blank containing all components except CaE.
as §3

Assay [4] deals with T2, butyrylcholinesterase (BChE, EC 3.1.1.8, from equine serum). Kind of assay: biochemical. Type of assay: biochemical. Here is the method: The test compounds were preincubated with the enzymes at 25 °C for 10 min, followed by the addition of the substrates. Parallel controls were made for an assay of the rate of hydrolysis of the same concentrations of substrates in the solutions with no inhibitor. The kinetic parameters of substrate hydrolysis were determined. Measurements were performed in a BioRad Benchmark Plus microplate spectrophotometer (France). Each experiment was performed in triplicate.

Assay [5] addresses T4, МК-801 binding site of NMDA receptor (Rattus norvegicus, UniProt P35439).
T4 construct: A membrane preparation of hippocampus for radioligand analysis was prepared; from tissue; host or cells: rat hippocampal membranes
Nature of the assay: Radioligand binding, [3H]MK-801 site of NMDA receptor, hippocampal membranes. The note with it: rat hippocampal membranes; for % of [3H]МК-801 blockade at 100 μM of compound: 100 μM compound; for IC50: read-out: [3H]МК-801, IC50. How it is done:
(§4) Effect of test compounds on the radioligand binding to NMDA receptors was determined by using a modified method as reported earlier by Zhou L-M and coworkers. Two radioactive ligands were used: [^3H] MK-801 (dizocilpine) with a specific activity of 210 Ci/mmol binding to all isolated NMDA receptors, and [^3H] ifenprodil with a specific activity of 79 Ci/mmol binding only to NMDA receptors containing the NR2B subunit.
(§5) A membrane preparation of hippocampus for radioligand analysis was prepared by the techniques described previously. The obtained membrane pellet was resuspended in a work buffer (5 mM HEPES/4.5 mM Tris buffer, pH 7.6) in a ratio of 1:5, and stored in liquid nitrogen. The reaction mixture (the final volume of 0.5 ml) contained 200 μl of the working buffer, 50 μl of 50 nM radioligand solution and 250 μl of the membrane suspension. Nonspecific binding was determined in the presence of 50 μl of […] of unlabeled ligand.
(§6) For binding study, the reaction mixture was incubated at room temperature for 2 hours. After incubation, the samples were filtered through the glass-fiber filters GF/B (Whatman), washed with the work buffer, dried and transferred to scintillation vials to which 5 ml of scintillation fluid was added containing 4g diphenyl oxazole (PPO), 0.2g diphenyloxazoil benzene (POPOP) and 1 liter of toluene. Radioactivity was determined in the scintillation counter TriCarb2800 TR (PerkinElmer, Packard, USA) with counting efficiency of about 65%.
(§7) Investigation of the effect of the tested compounds on the binding of [^3H]

For assay [6], the target named is T5, ifenprodil binding site of NMDA receptor (NR2B subunit containing) (Rattus norvegicus, UniProt P35439+Q00960).
T5 construct: A membrane preparation of hippocampus for radioligand analysis was prepared; from tissue; host or cells: rat hippocampal membranes
Kind of assay: Radioligand binding, [3H]ifenprodil site of NMDA receptor, hippocampal membranes. Particulars: rat hippocampal membranes; for IC50: read-out: [3H]ifenprodil, IC50. How it is done:
as §4, §5, §6, §7

Where [7] appears, read: BChE, means ± SEM, at least three experiments.

A value given as a limit tells only on which side of the number the result lay.

T2 sequence (P81908 whole entry): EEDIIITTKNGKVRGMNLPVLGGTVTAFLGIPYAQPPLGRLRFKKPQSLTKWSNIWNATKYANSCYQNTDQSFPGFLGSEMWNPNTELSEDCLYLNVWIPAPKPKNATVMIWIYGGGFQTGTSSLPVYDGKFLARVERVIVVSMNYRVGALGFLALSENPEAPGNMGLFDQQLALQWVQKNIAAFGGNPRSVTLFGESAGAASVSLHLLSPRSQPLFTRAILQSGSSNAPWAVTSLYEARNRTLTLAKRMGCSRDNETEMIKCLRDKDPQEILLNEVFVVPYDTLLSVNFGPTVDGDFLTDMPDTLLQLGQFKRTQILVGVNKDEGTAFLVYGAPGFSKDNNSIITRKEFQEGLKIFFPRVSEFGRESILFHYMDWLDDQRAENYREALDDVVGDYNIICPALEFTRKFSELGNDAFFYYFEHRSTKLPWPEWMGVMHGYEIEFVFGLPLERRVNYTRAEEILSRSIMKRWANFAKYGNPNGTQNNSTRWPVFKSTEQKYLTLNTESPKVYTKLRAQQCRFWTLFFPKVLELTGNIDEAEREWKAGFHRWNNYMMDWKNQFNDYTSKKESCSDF
T5 sequence (Q00960 27-1482, other chains not shown): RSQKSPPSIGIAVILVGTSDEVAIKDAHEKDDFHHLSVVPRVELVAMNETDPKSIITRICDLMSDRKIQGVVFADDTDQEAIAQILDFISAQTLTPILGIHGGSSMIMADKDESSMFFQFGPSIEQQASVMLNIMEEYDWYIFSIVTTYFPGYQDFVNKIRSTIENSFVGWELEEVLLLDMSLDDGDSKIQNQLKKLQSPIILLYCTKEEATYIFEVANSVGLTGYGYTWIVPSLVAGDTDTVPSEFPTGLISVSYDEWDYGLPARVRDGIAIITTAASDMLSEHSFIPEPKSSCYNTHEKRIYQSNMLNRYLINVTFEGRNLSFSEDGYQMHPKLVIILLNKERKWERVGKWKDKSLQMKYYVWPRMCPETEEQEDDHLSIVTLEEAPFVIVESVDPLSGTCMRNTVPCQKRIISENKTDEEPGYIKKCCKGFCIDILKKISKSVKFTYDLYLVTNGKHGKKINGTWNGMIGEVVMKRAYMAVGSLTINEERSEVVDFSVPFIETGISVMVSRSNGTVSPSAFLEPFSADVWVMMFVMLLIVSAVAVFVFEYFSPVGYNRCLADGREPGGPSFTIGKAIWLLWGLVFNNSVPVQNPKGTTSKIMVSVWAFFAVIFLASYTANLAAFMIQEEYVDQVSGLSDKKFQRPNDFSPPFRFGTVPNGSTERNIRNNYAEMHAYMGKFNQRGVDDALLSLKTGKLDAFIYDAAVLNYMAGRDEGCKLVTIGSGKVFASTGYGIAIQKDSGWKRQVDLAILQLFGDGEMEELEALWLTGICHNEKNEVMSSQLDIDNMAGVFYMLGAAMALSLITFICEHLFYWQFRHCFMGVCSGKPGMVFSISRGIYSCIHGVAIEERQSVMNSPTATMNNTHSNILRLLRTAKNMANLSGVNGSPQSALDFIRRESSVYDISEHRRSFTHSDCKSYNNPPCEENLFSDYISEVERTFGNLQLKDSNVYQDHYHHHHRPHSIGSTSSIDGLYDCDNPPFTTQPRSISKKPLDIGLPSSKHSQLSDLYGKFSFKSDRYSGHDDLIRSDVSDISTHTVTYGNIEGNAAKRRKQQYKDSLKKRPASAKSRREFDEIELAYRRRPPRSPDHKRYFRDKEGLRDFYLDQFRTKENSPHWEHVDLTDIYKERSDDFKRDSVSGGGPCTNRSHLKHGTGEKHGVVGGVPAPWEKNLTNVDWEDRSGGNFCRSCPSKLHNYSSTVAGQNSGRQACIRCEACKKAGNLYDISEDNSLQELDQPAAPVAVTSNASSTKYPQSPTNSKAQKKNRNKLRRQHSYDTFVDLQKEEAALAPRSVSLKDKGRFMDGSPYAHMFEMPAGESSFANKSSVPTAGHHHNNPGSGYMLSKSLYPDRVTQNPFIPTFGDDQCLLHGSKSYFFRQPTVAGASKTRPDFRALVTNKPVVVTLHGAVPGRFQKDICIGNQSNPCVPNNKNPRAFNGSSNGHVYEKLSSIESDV
T1 sequence (P22303 other isoform, or with tags, fused parts or gaps): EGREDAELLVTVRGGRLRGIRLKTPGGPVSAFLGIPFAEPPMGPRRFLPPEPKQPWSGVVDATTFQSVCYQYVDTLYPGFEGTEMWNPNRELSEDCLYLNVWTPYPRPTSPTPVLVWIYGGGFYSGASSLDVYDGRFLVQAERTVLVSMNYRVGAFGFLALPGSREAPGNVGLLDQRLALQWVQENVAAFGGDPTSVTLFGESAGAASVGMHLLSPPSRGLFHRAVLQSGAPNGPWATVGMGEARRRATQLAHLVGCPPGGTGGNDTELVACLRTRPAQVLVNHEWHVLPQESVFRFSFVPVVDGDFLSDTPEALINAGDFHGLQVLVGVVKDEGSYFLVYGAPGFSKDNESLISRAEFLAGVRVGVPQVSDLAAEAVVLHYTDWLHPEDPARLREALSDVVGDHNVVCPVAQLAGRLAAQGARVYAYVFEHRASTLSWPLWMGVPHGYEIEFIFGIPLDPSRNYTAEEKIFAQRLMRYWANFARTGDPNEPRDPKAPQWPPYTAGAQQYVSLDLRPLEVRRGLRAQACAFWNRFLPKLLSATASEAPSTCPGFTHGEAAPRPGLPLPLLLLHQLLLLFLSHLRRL

On to `CCc1ccc2c(c1)c1c(n2CCC(=O)N2c3ccccc3Sc3ccccc32)CCN(C)C1` [C-1g], for which the IC50 in assay [1] is over 100 µM; in assay [2] it was 1.36 ± 0.06 µM; in assay [3], over 200 µM; in assay [5], 13.2 ± 2.2 µM; in assay [6], 15.4 ± 3.9 µM. Moreover, in assay [4] (setting [7]), the “αKi (non-competitive inhibition constant)” value was found to be 0.99 ± 0.04 µM. Further, the Ki in assay [4] (BChE, means ± SEM, at least three experiments, read-out: Ki (competitive inhibition constant)) was determined as 0.46 ± 0.02 µM. The “% of [3H]МК-801 blockade at 100 μM of compound” value in assay [5] was 89.4 ± 4.6%. The “% of [3H]ifenprodil blockade at 100 μM of compound” value in assay [6] (100 μM compound) was determined as 64.6 ± 5.2%.

On to `CC(C)c1ccc2c(c1)c1c(n2CCC(=O)N2c3ccccc3Sc3ccccc32)CCN(C)C1` [C-1h], for which the IC50 was over 100 µM in assay [1]; 2.79 ± 0.09 µM in assay [2]; 120 ± 13 µM in assay [3]; 17.8 ± 2 µM in assay [5]; 85.8 ± 7.2 µM in assay [6]. Also, the “αKi (non-competitive inhibition constant)” value in assay [4] (setting [7]) was 1.94 ± 0.01 µM. Moreover, the “type of BChE inhibition” value in assay [4] (Lineweaver-Burk analysis) is “non-competitive mechanism”. The “% of [3H]МК-801 blockade at 100 μM of compound” value in assay [5] came out at 80.3 ± 6.9%.
